Read-outs that look alike come from different tables or passages of the source. Where only a bound is given, the exact number is not on record here.

The text below walks through data of paper PMC9967085, “Properly Substituted Benzimidazoles as a New Promising Class of Nicotinate Phosphoribosyltransferase (NAPRT) Modulators” (Pharmaceuticals, 2023).

In experiment [1] the target is NAPRT. Further details: method as in PMID 4255930. The note with it: cited from earlier work.
Experiment [2] deals with NAPRT. Further details: method as in PMID 4333776. The note with it: cited from earlier work.
The test system of experiment [3] is NAPRT. The arrangement: method as in PMID 35890155. The note with it: cited from earlier work.
Experiment [4] deals with NAPRT. Further details: method as in PMID 35890147. The note with it: cited from earlier work.
In experiment [5] the target is T1, Human recombinant NAPRT (Homo sapiens, UniProt Q6XQN6).
T1 construct: made in house
T1 sequence (Q6XQN6 1-538): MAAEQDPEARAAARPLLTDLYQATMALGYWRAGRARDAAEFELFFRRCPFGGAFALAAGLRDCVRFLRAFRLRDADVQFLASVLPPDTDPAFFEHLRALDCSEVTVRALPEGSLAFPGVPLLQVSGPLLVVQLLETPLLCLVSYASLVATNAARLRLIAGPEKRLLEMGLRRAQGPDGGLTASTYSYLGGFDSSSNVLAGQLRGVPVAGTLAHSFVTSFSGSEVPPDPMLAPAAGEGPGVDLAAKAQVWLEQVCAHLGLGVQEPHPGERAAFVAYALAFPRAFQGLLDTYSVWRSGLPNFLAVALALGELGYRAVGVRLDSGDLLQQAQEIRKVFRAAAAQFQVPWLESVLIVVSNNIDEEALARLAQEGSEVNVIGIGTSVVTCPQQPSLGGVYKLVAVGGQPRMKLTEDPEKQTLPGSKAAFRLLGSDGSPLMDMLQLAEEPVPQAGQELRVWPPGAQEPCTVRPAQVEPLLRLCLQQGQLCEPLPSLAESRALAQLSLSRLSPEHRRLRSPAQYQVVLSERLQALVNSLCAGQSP
Put plainly: HPLC-based NAPRT activity screening assay. The experiment is classed as biochemical.

The mark [6] stands for this setting: 1 mM compound, 0.2 mM NA, 0.4 mM PRPP.
Where [7] appears, read: 1 mM compound, 0.2 mM NA, 0.4 mM PRPP, read-out: % Inhibition.
Where [8] appears, read: 1 mM compound, 0.2 mM NA, 0.4 mM PRPP, read-out: % Inhibition (not active class).

What is called Ki is the dissociation constant of the complex between target and ligand, obtained from inhibition or displacement. Take `O=C(O)c1cccnc1F` [Compound 2]: the Ki in experiment [1] is 280 µM.

With `CCCCC1C(=O)N(c2ccccc2)N(c2ccccc2)C1=O` [Compound 4, phenylbutazone], the Ki in experiment [2] was 160 µM.

Turning to `O=C(O)c1ccccc1Nc1cccc(C(F)(F)F)c1` [Compound 5, flufenamic acid], in experiment [2], the Ki was 46 µM.

For the compound `Cc1cccc(Nc2ccccc2C(=O)O)c1C` [Compound 6, mefenamic acid], the Ki in experiment [2] is 76 µM.

Consider `O=C(O)c1ccccc1O` [Compound 7, salicylic acid], for which the Ki in experiment [2] is 160 µM.

One may read the IC50 as the point on the concentration scale where inhibition reaches its midpoint. Turning to `CC(C)(C)C(=O)OCCCn1cc(CCCN2C[C@@H](O)[C@@H](O)[C@@H]2NC(=O)c2ccccc2)nn1` [Compound 8], the half-maximal inhibitory concentration (IC50) in experiment [3] is 327 µM.

`CC(C)(C)C(=O)OCCCn1cc(CCCN2C[C@@H](O)[C@@H](O)[C@@H]2Cn2cc(-c3ccccc3)nn2)nn1` [Compound 9]: in experiment [3], the half-maximal inhibitory concentration (IC50) was 242 µM.

Take `NCc1cc2c(cc1Cl)OCO2` [Compound 10]: the concentration for half-maximal inhibition (IC50) in experiment [3] is 160 µM.

In the case of `O=C(Cn1c(=O)sc2ccccc21)Nc1cccc(C(=O)O)c1` [Compound 11], the half-inhibitory concentration (IC50) in experiment [3] is 232 µM.

Consider `CC(Oc1ccccc1Cl)C(=O)Nc1cccc(C(=O)O)c1` (stereo not drawn) [Compound 12], for which, in experiment [3], the IC50 was 265 µM.

As for `O=C(N[C@@H](C(=O)c1ccccc1)n1cnccc1=O)c1ccccc1` [Compound 13], in experiment [4], the inhibition constant Ki is 2300 µM.

Regarding `O=C(NC(Sc1ccncn1)C(=O)c1ccccc1)c1ccccc1` (stereo not drawn) [Compound 14], the Ki in experiment [4] was 89 µM.

Take `O=C(O)c1cnccc1O` [Compound 15]: in experiment [4], the Ki is 308 µM.

For `O=C(O)c1cnsn1` [Compound 16], the Ki in experiment [4] was 295 µM.

One may read the % Inhibition as the change of the read-out against control, counted positive when it falls. A word on the inhibition: it is the share of the control response that was lost under treatment. `CC(=O)NCc1cccc(CNc2ccc3c(c2)nc(C)n3C)c1` [Compound 17, N-(3-(((1,2-dimethyl-1H-benzo[d]imidazol-5-yl)amino)methyl)benzyl)acetamide]: in experiment [5] (setting [6]), the “% Inhibition” value was 30.3 ± 6.0% and the “-Fold Stimulation (not active class)” value is “-^b (Not active, it is referred to compounds showing less than 10% inhibition or less than 1.10-fold stimulation)”. In experiment [5] (setting [7]), the inhibition at 1000 µM was found to be 30%.

`Cc1nc2cc(NCc3cccc(CN)c3)ccc2n1C` [Compound 19, N-(3-(aminomethyl)benzyl)-1,2-dimethyl-1H-benzo[d]imidazol-5-amine]: the “Effect on NAPRT catalytic activity (in words)” value (“Effect” below) in experiment [5] was “inactive”. Further, the “-Fold Stimulation (not active class)” value in experiment [5] (setting [6]) is on record as “- (Not active, it is referred to compounds showing less than 10% inhibition or less than 1.10-fold stimulation)”. Further, the inhibition at 1000 µM in experiment [5] (setting [7]) is 0.6 ± 0.9%; in experiment [5] (setting [8]), less than 10%.

With `Cc1nc2cc(NCc3cccc(N)c3)ccc2n1C` [Compound 20, N-(3-aminobenzyl)-1,2-dimethyl-1H-benzo[d]imidazol-5-amine], the “Effect” value in experiment [5] was “NAPRT activators”. Further, the “-Fold Stimulation” value in experiment [5] (setting [6]) came out at 1.25 ± 0.05 fold. For the same compound, the inhibition at 1000 µM in experiment [5] (setting [8]) was less than 10%.

`CC(=O)NCc1cccc(CN(C)c2ccc3c(c2)nc(C)n3C)c1` [Compound 21, N-(3-(((1,2-dimethyl-1H-benzo[d]imidazol-5-yl)(methyl)amino)methyl)benzyl) acetamide]: in experiment [5] (setting [6]), the “-Fold Stimulation” value is listed as 0 fold and the “-Fold Stimulation (not active class)” value is “- (Not active, it is referred to compounds showing less than 10% inhibition or less than 1.10-fold stimulation)”. For the same compound, in experiment [5] (setting [7]), the inhibition at 1000 µM turned out to be 0%. In addition, the inhibition at 1000 µM in experiment [5] (setting [8]) was less than 10%.

In the case of `CC(=O)Nc1cccc(CN(C)c2ccc3c(c2)nc(C)n3C)c1` [Compound 22, N-(3-(((1,2-dimethyl-1H-benzo[d]imidazol-5-yl)(methyl)amino)methyl)phenyl) acetamide], the “-Fold Stimulation (not active class)” value in experiment [5] (setting [6]) is on record as “- (Not active, it is referred to compounds showing less than 10% inhibition or less than 1.10-fold stimulation)”. Moreover, the figures for the inhibition at 1000 µM in experiment [5] (setting [7]) and in experiment [5] (setting [8]) were 5 ± 1.2% and less than 10%, respectively.

On to `Cc1nc2cc(N(C)Cc3cccc(CN)c3)ccc2n1C` [Compound 23, N-(3-(aminomethyl)benzyl)-N,1,2-trimethyl-1H-benzo[d]imidazol-5-amine], for which the “Effect” value in experiment [5] is recorded as “NAPRT activators”. Besides, in experiment [5] (setting [6]), the “-Fold Stimulation” value came to 1.14 ± 0.05 fold. Also, the inhibition at 1000 µM in experiment [5] (setting [8]) was less than 10%.

For `Cc1nc2cc(N(C)Cc3cccc(N)c3)ccc2n1C` [Compound 24, N-(3-aminobenzyl)-N,1,2-trimethyl-1H-benzo[d]imidazol-5-amine], in experiment [5], the “Effect” value is “NAPRT activators”. Moreover, in experiment [5] (setting [6]), the “-Fold Stimulation” value was determined as 1.44 ± 0.04 fold. Moreover, in experiment [5] (setting [8]), the inhibition at 1000 µM was less than 10%.

For the compound `CC(=O)NCc1ccc(CNc2ccc3c(c2)nc(C)n3C)cc1` [Compound 25, N-(4-(((1,2-dimethyl-1H-benzo[d]imidazol-5-yl)amino)methyl)benzyl)acetamide], the “Effect” value in experiment [5] is reported as “inhibit NAPRT activity”. For the same compound, the “-Fold Stimulation (not active class)” value in experiment [5] (setting [6]) is “- (Not active, it is referred to compounds showing less than 10% inhibition or less than 1.10-fold stimulation)”. Also, the inhibition at 1000 µM in experiment [5] (setting [7]) came out at 13 ± 3.1%.

Turning to `CC(=O)Nc1ccc(CNc2ccc3c(c2)nc(C)n3C)cc1` [Compound 26, N-(4-(((1,2-dimethyl-1H-benzo[d]imidazol-5-yl)amino)methyl)phenyl)acetamide], in experiment [5] (setting [6]), the “-Fold Stimulation (not active class)” value is reported as “- (Not active, it is referred to compounds showing less than 10% inhibition or less than 1.10-fold stimulation)”. The inhibition at 1000 µM in experiment [5] (setting [7]) was 1.3%; in experiment [5] (setting [8]) it was less than 10%.

In the case of `Cc1nc2cc(NCc3ccc(CN)cc3)ccc2n1C` [Compound 27, N-(4-(aminomethyl)benzyl)-1,2-dimethyl-1H-benzo[d]imidazol-5-amine], the “-Fold Stimulation (not active class)” value in experiment [5] (setting [6]) is “- (Not active, it is referred to compounds showing less than 10% inhibition or less than 1.10-fold stimulation)”. Further, the figures for the inhibition at 1000 µM in experiment [5] (setting [7]) and in experiment [5] (setting [8]) were 1.9 ± 0.9% and less than 10%, respectively.

For `Cc1nc2cc(NCc3ccc(N)cc3)ccc2n1C` [Compound 28, N-(4-aminobenzyl)-1,2-dimethyl-1H-benzo[d]imidazol-5-amine], the “-Fold Stimulation” value in experiment [5] (setting [6]) was 0 fold. Moreover, in experiment [5] (setting [6]), the “-Fold Stimulation (not active class)” value is “- (Not active, it is referred to compounds showing less than 10% inhibition or less than 1.10-fold stimulation)”. Moreover, the results for the inhibition at 1000 µM in experiment [5] (setting [7]) and in experiment [5] (setting [8]) were 0% and less than 10%, respectively.

In the case of `CC(=O)NCc1ccc(CN(C)c2ccc3c(c2)nc(C)n3C)cc1` [Compound 29, N-(4-(((1,2-dimethyl-1H-benzo[d]imidazol-5-yl)(methyl)amino)methyl)benzyl) acetamide], in experiment [5], the “Effect” value is “inhibit NAPRT activity”. The “-Fold Stimulation (not active class)” value in experiment [5] (setting [6]) is “- (Not active, it is referred to compounds showing less than 10% inhibition or less than 1.10-fold stimulation)”. Also, in experiment [5] (setting [7]), the inhibition at 1000 µM turned out to be 12 ± 2.2%.

With `CC(=O)Nc1ccc(CN(C)c2ccc3c(c2)nc(C)n3C)cc1` [Compound 30, N-(4-(((1,2-dimethyl-1H-benzo[d]imidazol-5-yl)(methyl)amino)methyl)phenyl) acetamide], the “-Fold Stimulation” value in experiment [5] (setting [6]) is recorded as 0 fold. Moreover, the “-Fold Stimulation (not active class)” value in experiment [5] (setting [6]) was “- (Not active, it is referred to compounds showing less than 10% inhibition or less than 1.10-fold stimulation)”. Besides, the inhibition at 1000 µM was 0% in experiment [5] (setting [7]) and less than 10% in experiment [5] (setting [8]).

`Cc1nc2cc(N(C)Cc3ccc(CN)cc3)ccc2n1C` [Compound 31, N-(4-(aminomethyl)benzyl)-N,1,2-trimethyl-1H-benzo[d]imidazol-5-amine]: the “Effect” value in experiment [5] is given as “NAPRT activators”. Moreover, in experiment [5] (setting [6]), the “-Fold Stimulation” value came out at 1.58 ± 0.07 fold. Besides, the inhibition at 1000 µM in experiment [5] (setting [8]) was less than 10%.

Take “N-(3-(((1,2-dimethyl-1H-benzo[d]imidazol-5-yl)(methyl)amino)methyl)benzyl) acetamide [Compound 33]”: in experiment [5] (setting [6]), the “% Inhibition (not active class)” value is “- (Not active, it is referred to compounds showing less than 10% inhibition or less than 1.10-fold stimulation)”; the “-Fold Stimulation” value is 1.08 ± 0.03 fold; the “-Fold Stimulation (not active class)” value is recorded as “- (Not active, it is referred to compounds showing less than 10% inhibition or less than 1.10-fold stimulation)”.

For “N-(3-(((1,2-dimethyl-1H-benzo[d]imidazol-5-yl)amino)methyl)benzyl)acetamide [Compound 32]”, the “Effect” value in experiment [5] is recorded as “NAPRT activators”. Further, in experiment [5] (setting [6]), the “% Inhibition (not active class)” value was “- (Not active, it is referred to compounds showing less than 10% inhibition or less than 1.10-fold stimulation)” and the “-Fold Stimulation” value was 1.47 ± 0.07 fold.
